Source: the NIST ThermoML archive (doi:10.1016/j.jct.2016.01.017)
Numbers after ± are expanded uncertainties.

Assay: activity coefficient (dimensionless); of the first substance listed, at infinite dilution; xn = mol fraction of the nth substance listed
Details: 100 kPa, Liquid, Chromatography, x1 = 0

| SMILES | activity coefficient (308.15 K) | activity coefficient (318.15 K) | activity coefficient (328.15 K) | activity coefficient (338.15 K) | activity coefficient (348.15 K) | activity coefficient (358.15 K) | activity coefficient (368.15 K) |
| --- | --- | --- | --- | --- | --- | --- | --- |
| C1CCCCC1 [cyclohexane] + CCCC[n+]1ccc(C#N)cc1.O=S(=O)([N-]S(=O)(=O)C(F)(F)F)C(F)(F)F | 17.7 ± 1.5 | 16.3 ± 1.4 | 15.1 ± 1.3 | 14.2 ± 1.2 | 13.2 ± 1.1 | 12.4 ± 1.1 | 11.7 ± 1 |
| C1=CCCCC1 [cyclohexene] + CCCC[n+]1ccc(C#N)cc1.O=S(=O)([N-]S(=O)(=O)C(F)(F)F)C(F)(F)F | 7.51 ± 0.65 | 7.4 ± 0.64 | 7.28 ± 0.63 | 7.19 ± 0.62 | 7.1 ± 0.61 | 7.1 ± 0.61 | 6.9 ± 0.6 |
| C1CCCCCCC1 [cyclooctane] + CCCC[n+]1ccc(C#N)cc1.O=S(=O)([N-]S(=O)(=O)C(F)(F)F)C(F)(F)F | 26.5 ± 2.3 | 25.2 ± 2.2 | 24.1 ± 2.1 | 23.2 ± 2 | 22.4 ± 1.9 | 21.6 ± 1.9 | 20.9 ± 1.8 |
| C1CCCC1 [cyclopentane] + CCCC[n+]1ccc(C#N)cc1.O=S(=O)([N-]S(=O)(=O)C(F)(F)F)C(F)(F)F | 12.7 ± 1.1 | 11.6 ± 1 | 10.7 ± 0.9 | 9.97 ± 0.86 | 9.31 ± 0.8 | 8.69 ± 0.75 | 8.14 ± 0.7 |
| CCCCCCCCCC [decane] + CCCC[n+]1ccc(C#N)cc1.O=S(=O)([N-]S(=O)(=O)C(F)(F)F)C(F)(F)F | 124 ± 11 | 115 ± 10 | 107 ± 9 | 99.8 ± 8.6 | 93.8 ± 8.1 | 88.2 ± 7.6 | 83.6 ± 7.2 |
| CCOCC [diethyl ether] + CCCC[n+]1ccc(C#N)cc1.O=S(=O)([N-]S(=O)(=O)C(F)(F)F)C(F)(F)F | 3.17 ± 0.27 | 3.24 ± 0.28 | 3.31 ± 0.29 | 3.37 ± 0.29 | 3.44 ± 0.3 | 3.5 ± 0.3 | 3.56 ± 0.31 |
| CC(C)OC(C)C [diisopropyl ether] + CCCC[n+]1ccc(C#N)cc1.O=S(=O)([N-]S(=O)(=O)C(F)(F)F)C(F)(F)F | 9.7 ± 0.84 | 9.65 ± 0.83 | 9.59 ± 0.83 | 9.57 ± 0.83 | 9.53 ± 0.82 | 9.48 ± 0.82 | 9.45 ± 0.82 |
| CCCOCCC [dipropyl ether] + CCCC[n+]1ccc(C#N)cc1.O=S(=O)([N-]S(=O)(=O)C(F)(F)F)C(F)(F)F | 8.88 ± 0.77 | 8.84 ± 0.76 | 8.83 ± 0.76 | 8.78 ± 0.76 | 8.75 ± 0.76 | 8.73 ± 0.75 | 8.71 ± 0.75 |
| CCO [ethanol] + CCCC[n+]1ccc(C#N)cc1.O=S(=O)([N-]S(=O)(=O)C(F)(F)F)C(F)(F)F | 1.86 ± 0.16 | 1.74 ± 0.15 | 1.64 ± 0.14 | 1.55 ± 0.13 | 1.47 ± 0.12 | 1.39 ± 0.12 | 1.33 ± 0.11 |
| CCOC(C)=O [ethyl acetate] + CCCC[n+]1ccc(C#N)cc1.O=S(=O)([N-]S(=O)(=O)C(F)(F)F)C(F)(F)F | 0.839 ± 0.07 | 0.89 ± 0.074 | 0.941 ± 0.077 | 0.995 ± 0.082 | 1.05 ± 0.09 | 1.1 ± 0.09 | 1.15 ± 0.1 |
| CCc1ccccc1 [ethylbenzene] + CCCC[n+]1ccc(C#N)cc1.O=S(=O)([N-]S(=O)(=O)C(F)(F)F)C(F)(F)F | 2.49 ± 0.21 | 2.58 ± 0.22 | 2.67 ± 0.23 | 2.77 ± 0.24 | 2.85 ± 0.25 | 2.93 ± 0.25 | 3.03 ± 0.26 |
| CCCCCCC [heptane] + CCCC[n+]1ccc(C#N)cc1.O=S(=O)([N-]S(=O)(=O)C(F)(F)F)C(F)(F)F | 45.8 ± 4 | 42.5 ± 3.7 | 39.8 ± 3.4 | 37.4 ± 3.2 | 35.3 ± 3.1 | 33.5 ± 2.9 | 31.7 ± 2.7 |
| C=CCCCC [hex-1-ene] + CCCC[n+]1ccc(C#N)cc1.O=S(=O)([N-]S(=O)(=O)C(F)(F)F)C(F)(F)F | 14.1 ± 1.2 | 13.8 ± 1.2 | 13.5 ± 1.2 | 13.2 ± 1.1 | 12.9 ± 1.1 | 12.7 ± 1.1 | 12.5 ± 1.1 |
| CCCCCC [hexane] + CCCC[n+]1ccc(C#N)cc1.O=S(=O)([N-]S(=O)(=O)C(F)(F)F)C(F)(F)F | 33 ± 2.9 | 30.7 ± 2.7 | 28.8 ± 2.5 | 27.1 ± 2.3 | 25.6 ± 2.2 | 24.2 ± 2.1 | 23.1 ± 2 |
| CC(C)c1ccccc1 [isopropylbenzene] + CCCC[n+]1ccc(C#N)cc1.O=S(=O)([N-]S(=O)(=O)C(F)(F)F)C(F)(F)F | 4.04 ± 0.35 | 4.13 ± 0.36 | 4.22 ± 0.36 | 4.31 ± 0.37 | 4.39 ± 0.38 | 4.47 ± 0.39 | 4.56 ± 0.39 |
| CO [methanol] + CCCC[n+]1ccc(C#N)cc1.O=S(=O)([N-]S(=O)(=O)C(F)(F)F)C(F)(F)F | 1.33 ± 0.11 | 1.27 ± 0.11 | 1.21 ± 0.1 | 1.17 ± 0.1 | 1.12 ± 0.09 | 1.08 ± 0.09 | 1.05 ± 0.09 |
| CCCC(=O)OC [methyl butanoate] + CCCC[n+]1ccc(C#N)cc1.O=S(=O)([N-]S(=O)(=O)C(F)(F)F)C(F)(F)F | 1.15 ± 0.1 | 1.22 ± 0.1 | 1.28 ± 0.11 | 1.35 ± 0.11 | 1.42 ± 0.12 | 1.48 ± 0.13 | 1.55 ± 0.13 |
| COC(C)=O [methyl ethanoate] + CCCC[n+]1ccc(C#N)cc1.O=S(=O)([N-]S(=O)(=O)C(F)(F)F)C(F)(F)F | 0.607 ± 0.053 | 0.646 ± 0.056 | 0.685 ± 0.059 | 0.724 ± 0.061 | 0.762 ± 0.064 | 0.8 ± 0.067 | 0.839 ± 0.07 |
| CCC(=O)OC [methyl propanoate] + CCCC[n+]1ccc(C#N)cc1.O=S(=O)([N-]S(=O)(=O)C(F)(F)F)C(F)(F)F | 0.8 ± 0.067 | 0.855 ± 0.071 | 0.905 ± 0.075 | 0.956 ± 0.079 | 1.01 ± 0.08 | 1.06 ± 0.09 | 1.11 ± 0.09 |
| CC1CCCCC1 [methylcyclohexane] + CCCC[n+]1ccc(C#N)cc1.O=S(=O)([N-]S(=O)(=O)C(F)(F)F)C(F)(F)F | 23.4 ± 2 | 21.8 ± 1.9 | 20.4 ± 1.8 | 19.1 ± 1.7 | 18 ± 2 | 17.1 ± 1.5 | 16.2 ± 1.4 |
| CCCCCCCCC [nonane] + CCCC[n+]1ccc(C#N)cc1.O=S(=O)([N-]S(=O)(=O)C(F)(F)F)C(F)(F)F | 92.9 ± 8 | 85.9 ± 7.4 | 79.8 ± 6.9 | 74.1 ± 6.4 | 69.4 ± 6 | 65.3 ± 5.7 | 61.5 ± 5.3 |
| C=CCCCCCC [oct-1-ene] + CCCC[n+]1ccc(C#N)cc1.O=S(=O)([N-]S(=O)(=O)C(F)(F)F)C(F)(F)F | 31.7 ± 2.7 | 30.1 ± 2.6 | 28.6 ± 2.5 | 27.3 ± 2.4 | 26.3 ± 2.3 | 25.3 ± 2.2 | 24.3 ± 2.1 |
| CCCCCCCC [octane] + CCCC[n+]1ccc(C#N)cc1.O=S(=O)([N-]S(=O)(=O)C(F)(F)F)C(F)(F)F | 65 ± 5.6 | 59.9 ± 5.2 | 55.3 ± 4.8 | 51.3 ± 4.4 | 47.9 ± 4.1 | 45 ± 4 | 42.4 ± 3.7 |
| CCCCCO [pentan-1-ol] + CCCC[n+]1ccc(C#N)cc1.O=S(=O)([N-]S(=O)(=O)C(F)(F)F)C(F)(F)F | 3.84 ± 0.33 | 3.58 ± 0.31 | 3.36 ± 0.29 | 3.15 ± 0.27 | 2.97 ± 0.26 | 2.81 ± 0.24 | 2.67 ± 0.23 |
| CCCC(C)=O [pentan-2-one] + CCCC[n+]1ccc(C#N)cc1.O=S(=O)([N-]S(=O)(=O)C(F)(F)F)C(F)(F)F | 0.697 ± 0.06 | 0.739 ± 0.063 | 0.783 ± 0.066 | 0.824 ± 0.069 | 0.868 ± 0.072 | 0.909 ± 0.075 | 0.95 ± 0.078 |
| CCC(=O)CC [pentan-3-one] + CCCC[n+]1ccc(C#N)cc1.O=S(=O)([N-]S(=O)(=O)C(F)(F)F)C(F)(F)F | 0.697 ± 0.06 | 0.746 ± 0.063 | 0.792 ± 0.066 | 0.84 ± 0.07 | 0.889 ± 0.074 | 0.936 ± 0.077 | 0.984 ± 0.081 |
| CCCCC [pentane] + CCCC[n+]1ccc(C#N)cc1.O=S(=O)([N-]S(=O)(=O)C(F)(F)F)C(F)(F)F | 26.7 ± 2.3 | 24.2 ± 2.1 | 22 ± 1.9 | 20.2 ± 1.7 | 18.6 ± 1.6 | 17.2 ± 1.5 | 16 ± 1.4 |
| CCCO [propan-1-ol] + CCCC[n+]1ccc(C#N)cc1.O=S(=O)([N-]S(=O)(=O)C(F)(F)F)C(F)(F)F | 2.38 ± 0.21 | 2.23 ± 0.19 | 2.1 ± 0.18 | 1.98 ± 0.17 | 1.88 ± 0.16 | 1.79 ± 0.15 | 1.7 ± 0.14 |
